{
  "source": "patent US20240132513A1",
  "about": "“BENZAZEPINE DERIVATIVES, COMPOSITIONS, AND METHODS FOR TREATING COGNITIVE IMPAIRMENT” (AGENEBIO, INC., priority 2022, published 2024)",
  "key": {"[1]": {"target": "T1, GABAA R (α5β2γ2) (Homo sapiens, UniProt P18507+P31644)", "T1 construct": "expressed in transfected cells", "T1 sequence (P31644 32-462)": "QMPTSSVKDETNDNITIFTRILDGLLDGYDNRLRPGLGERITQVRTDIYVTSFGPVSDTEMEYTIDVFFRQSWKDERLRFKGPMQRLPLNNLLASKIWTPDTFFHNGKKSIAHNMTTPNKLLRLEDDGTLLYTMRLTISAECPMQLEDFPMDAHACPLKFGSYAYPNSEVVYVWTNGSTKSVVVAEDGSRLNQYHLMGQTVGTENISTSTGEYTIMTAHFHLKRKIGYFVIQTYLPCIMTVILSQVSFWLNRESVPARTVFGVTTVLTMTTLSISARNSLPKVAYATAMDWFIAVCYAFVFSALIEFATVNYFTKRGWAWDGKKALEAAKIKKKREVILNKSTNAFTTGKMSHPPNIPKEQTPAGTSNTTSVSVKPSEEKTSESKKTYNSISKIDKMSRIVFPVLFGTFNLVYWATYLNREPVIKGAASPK", "T1 sequence (P47870 25-512 partner limits assumed)": "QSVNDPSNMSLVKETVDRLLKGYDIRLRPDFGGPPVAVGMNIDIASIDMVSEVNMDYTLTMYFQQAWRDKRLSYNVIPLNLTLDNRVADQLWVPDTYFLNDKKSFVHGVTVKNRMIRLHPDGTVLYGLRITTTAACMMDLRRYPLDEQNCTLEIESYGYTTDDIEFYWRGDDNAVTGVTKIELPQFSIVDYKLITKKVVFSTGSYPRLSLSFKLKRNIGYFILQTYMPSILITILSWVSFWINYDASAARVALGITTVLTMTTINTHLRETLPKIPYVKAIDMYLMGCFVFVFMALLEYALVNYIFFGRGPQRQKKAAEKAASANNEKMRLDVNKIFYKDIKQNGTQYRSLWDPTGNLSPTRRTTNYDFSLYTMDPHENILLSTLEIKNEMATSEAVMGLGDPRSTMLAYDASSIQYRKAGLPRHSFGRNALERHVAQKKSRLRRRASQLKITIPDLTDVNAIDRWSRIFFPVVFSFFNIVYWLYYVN", "T1 sequence (P18507 40-475)": "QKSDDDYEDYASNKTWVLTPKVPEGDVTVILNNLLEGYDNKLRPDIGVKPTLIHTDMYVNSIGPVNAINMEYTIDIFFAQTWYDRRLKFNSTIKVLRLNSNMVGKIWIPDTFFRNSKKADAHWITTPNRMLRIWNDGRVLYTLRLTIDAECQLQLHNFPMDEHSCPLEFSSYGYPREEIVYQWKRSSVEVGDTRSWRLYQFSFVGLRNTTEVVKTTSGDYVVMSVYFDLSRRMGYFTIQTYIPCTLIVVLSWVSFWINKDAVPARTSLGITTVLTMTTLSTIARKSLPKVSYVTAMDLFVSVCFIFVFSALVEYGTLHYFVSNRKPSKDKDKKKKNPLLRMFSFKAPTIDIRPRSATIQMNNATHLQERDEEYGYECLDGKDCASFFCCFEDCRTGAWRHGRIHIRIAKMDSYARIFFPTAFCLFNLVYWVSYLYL", "test": "Positive allosteric modulator activity: potentiation of EC20 GABA current in oocytes", "format": "cell-based", "procedure,_shortened": "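Xenopus oocytes injected with 1 ng α5:β2:γ2 cDNA (1:1:10 by weight), tested day 2, voltage-clamped at −60 mV under MBS superfusion.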"}, "[2]": {"target": "α5β3γ2 GABAA R (Homo sapiens, UniProt P18507+P31644)", "sequence (P31644 32-462)": "as the sequence (P31644 32-462) above", "sequence (P28472 26-473 partner)": "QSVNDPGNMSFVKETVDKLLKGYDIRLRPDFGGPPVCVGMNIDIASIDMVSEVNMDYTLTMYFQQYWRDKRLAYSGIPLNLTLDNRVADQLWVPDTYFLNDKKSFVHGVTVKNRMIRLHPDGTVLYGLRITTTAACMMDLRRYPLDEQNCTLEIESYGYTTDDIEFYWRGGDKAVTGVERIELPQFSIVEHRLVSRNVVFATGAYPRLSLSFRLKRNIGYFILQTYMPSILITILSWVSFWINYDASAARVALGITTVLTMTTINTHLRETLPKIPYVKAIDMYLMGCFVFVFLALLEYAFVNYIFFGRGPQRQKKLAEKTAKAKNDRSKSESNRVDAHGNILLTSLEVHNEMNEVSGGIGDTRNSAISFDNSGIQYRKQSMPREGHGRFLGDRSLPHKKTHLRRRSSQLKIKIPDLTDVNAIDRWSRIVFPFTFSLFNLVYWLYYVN", "sequence (P18507 40-475)": "as the sequence (P18507 40-475) above", "test": "Binding activity on GABAA R: inhibition of [3H]Ro15-1788 binding, α5 containing receptor", "procedure,_shortened": "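Displacement of [3H]Ro15-1788 (flumazenil) measured at 4 °C over 1 h using 0.2 mg/ml membrane protein from Ltk cells carrying α5β3γ2 GABAA receptors, expression induced with 0.5 μM dexamethasone for 1 day; buffer pH 7.4 KH2PO4/EDTA/KCl. 10 μM diazepam defined nonspecific binding; filter-trapped radioactivity counted, in triplicate.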"}, "[3]": {"conditions": "read-out: GABA α5 Functional Data: potentiation, @ 100 nM, EC20 GABA, ranges of the column heads"}, "[4]": {"conditions": "read-out: GABA α5 Functional Data: potentiation"}, "[5]": {"conditions": "ranges of the column heads, [3H]Ro15-1788, Ltk cell membranes"}},
  "note": "Like-named read-outs stand apart in the source and are kept apart here.",
  "data": [
    {"molecule": "COc1ccc2c(c1)-c1nn(C)cc1Cc1c(-c3noc(C4COCCO4)n3)ncn1-2", "note": "(stereo not shown) [Compound 207]", "values": [
      {"measurement": "activation at 0.1 µM", "setting": "[1]; [3]", "value": "20 to 50", "unit": "%"},
      {"measurement": "Ki", "setting": "[2]", "value": "< 0.1", "unit": "µM"}
    ]},
    {"molecule": "Cn1cc2c(n1)-c1cc(Cl)ccc1-n1cnc(-c3cnn(Cc4cccnc4)c3)c1C2", "note": "[Compound 208]", "values": [
      {"measurement": "activation at 0.1 µM", "setting": "[1]; [3]", "value": "5 to 20", "unit": "%"},
      {"measurement": "Ki", "setting": "[2]", "value": "< 0.1", "unit": "µM"}
    ]},
    {"molecule": "Cc1nnc(-c2ncn3c2Cc2cn(C)nc2-c2cc(Cl)ccc2-3)o1", "note": "[Compound 209]", "values": [
      {"measurement": "activation at 0.1 µM", "setting": "[1]; [3]", "value": "20 to 50", "unit": "%"},
      {"measurement": "Ki", "setting": "[2]", "value": "< 0.1", "unit": "µM"}
    ]},
    {"molecule": "Cn1cc2c(n1)-c1cc(Cl)ccc1-n1cnc(-c3nnc(C(F)(F)F)o3)c1C2", "note": "[Compound 210]", "values": [
      {"measurement": "activation at 0.1 µM", "setting": "[1]; [3]", "value": "20 to 50", "unit": "%"},
      {"measurement": "Ki", "setting": "[2]", "value": "< 0.1", "unit": "µM"}
    ]},
    {"molecule": "Cn1cc2c(n1)-c1cc(Cl)ccc1-n1cnc(-c3noc(COC4CCCC4)n3)c1C2", "note": "[Compound 211]", "values": [
      {"measurement": "activation at 0.1 µM", "setting": "[1]; [3]", "value": "20 to 50", "unit": "%"},
      {"measurement": "Ki", "setting": "[2]", "value": "< 0.1", "unit": "µM"}
    ]},
    {"molecule": "Cn1cc2c(n1)-c1cc(Cl)ccc1-n1cnc(-c3nnc(C4CCOC4)o3)c1C2", "note": "(stereo not shown) [Compound 212]", "values": [
      {"measurement": "activation at 0.1 µM", "setting": "[1]; [4]", "value": "5 to 20", "unit": "%"},
      {"measurement": "Ki", "setting": "[2]; [5]", "value": "< 0.1", "unit": "µM"}
    ]},
    {"molecule": "Cn1cc2c(n1)-c1cc(Cl)ccc1-n1cnc(-c3noc(C4COCCO4)n3)c1C2", "note": "(stereo not shown) [Compound 213]", "values": [
      {"measurement": "activation at 0.1 µM", "setting": "[1]; [3]", "value": "> 50", "unit": "%"},
      {"measurement": "Ki", "setting": "[2]", "value": "< 0.1", "unit": "µM"}
    ]},
    {"molecule": "COC(C)(C)c1nc(-c2ncn3c2Cc2cn(C)nc2-c2cc(Cl)ccc2-3)no1", "note": "[Compound 214]", "values": [
      {"measurement": "activation at 0.1 µM", "setting": "[1]; [3]", "value": "> 50", "unit": "%"},
      {"measurement": "Ki", "setting": "[2]", "value": "< 0.1", "unit": "µM"}
    ]},
    {"molecule": "Cn1cc2c(n1)-c1cc(Cl)ccc1-n1cnc(-c3noc(COC(C)(C)C)n3)c1C2", "note": "[Compound 215]", "values": [
      {"measurement": "activation at 0.1 µM", "setting": "[1]; [3]", "value": "20 to 50", "unit": "%"},
      {"measurement": "Ki", "setting": "[2]", "value": "< 0.1", "unit": "µM"}
    ]},
    {"molecule": "COC1(c2nc(-c3ncn4c3Cc3cn(C)nc3-c3cc(Cl)ccc3-4)no2)CC1", "note": "[Compound 216]", "values": [
      {"measurement": "activation at 0.1 µM", "setting": "[1]; [3]", "value": "5 to 20", "unit": "%"},
      {"measurement": "Ki", "setting": "[2]", "value": "< 0.1", "unit": "µM"}
    ]},
    {"molecule": "Cn1cc2c(n1)-c1cc(Cl)ccc1-n1cnc(-c3noc(COCC(F)(F)F)n3)c1C2", "note": "[Compound 217]", "values": [
      {"measurement": "activation at 0.1 µM", "setting": "[1]; [3]", "value": "20 to 50", "unit": "%"},
      {"measurement": "Ki", "setting": "[2]", "value": "< 0.1", "unit": "µM"}
    ]},
    {"molecule": "Cn1cc2c(n1)-c1cc(Cl)ccc1-n1cnc(-c3noc(C4(F)CC4)n3)c1C2", "note": "[Compound 218]", "values": [
      {"measurement": "activation at 0.1 µM", "setting": "[1]; [3]", "value": "20 to 50", "unit": "%"},
      {"measurement": "Ki", "setting": "[2]", "value": "< 0.1", "unit": "µM"}
    ]},
    {"molecule": "Cn1cc2c(n1)-c1cc(Cl)ccc1-n1cnc(-c3nc(C4CCOCC4)no3)c1C2", "note": "[Compound 219]", "values": [
      {"measurement": "activation at 0.1 µM", "setting": "[1]; [3]", "value": "5 to 20", "unit": "%"},
      {"measurement": "Ki", "setting": "[2]", "value": "< 0.1", "unit": "µM"}
    ]},
    {"molecule": "COc1ccc2c(c1)-c1nn(C)cc1Cc1c(-c3nc(C4CCOCC4)no3)ncn1-2", "note": "[Compound 220]", "values": [
      {"measurement": "activation at 0.1 µM", "setting": "[1]; [3]", "value": "20 to 50", "unit": "%"},
      {"measurement": "Ki", "setting": "[2]", "value": "< 0.1", "unit": "µM"}
    ]},
    {"molecule": "Cn1cc2c(n1)-c1cc(Cl)ccc1-n1cnc(-c3cnn(CC4CCCO4)c3)c1C2", "note": "(stereo not shown) [Compound 222]", "values": [
      {"measurement": "activation at 0.1 µM", "setting": "[1]; [3]", "value": "5 to 20", "unit": "%"},
      {"measurement": "Ki", "setting": "[2]", "value": "< 0.1", "unit": "µM"}
    ]},
    {"molecule": "Cn1cc2c(n1)-c1cc(Cl)ccc1-n1cnc(-c3noc(C4COC4)n3)c1C2", "note": "[Compound 223]", "values": [
      {"measurement": "activation at 0.1 µM", "setting": "[1]; [4]", "value": "5 to 20", "unit": "%"},
      {"measurement": "Ki", "setting": "[2]; [5]", "value": "< 0.1", "unit": "µM"}
    ]},
    {"molecule": "Clc1ccc2c(c1)-c1nn(CC3COC3)cc1Cc1c(-c3nc(C4CC4)no3)ncn1-2", "note": "[Compound 224]", "values": [
      {"measurement": "activation at 0.1 µM", "setting": "[1]; [3]", "value": "20 to 50", "unit": "%"},
      {"measurement": "Ki", "setting": "[2]", "value": "< 0.1", "unit": "µM"}
    ]},
    {"molecule": "Cn1cc2c(n1)-c1cc(Cl)ccc1-n1cnc(-c3noc(C4(C)COC4)n3)c1C2", "note": "[Compound 225]", "values": [
      {"measurement": "activation at 0.1 µM", "setting": "[1]; [3]", "value": "20 to 50", "unit": "%"},
      {"measurement": "Ki", "setting": "[2]", "value": "< 0.1", "unit": "µM"}
    ]},
    {"molecule": "COc1ccc2c(c1)-c1nn(CC3COC3)cc1Cc1c(-c3nc(C4CC4)no3)ncn1-2", "note": "[Compound 226]", "values": [
      {"measurement": "activation at 0.1 µM", "setting": "[1]; [4]", "value": "5 to 20", "unit": "%"},
      {"measurement": "Ki", "setting": "[2]; [5]", "value": "< 0.1", "unit": "µM"}
    ]},
    {"molecule": "FC(F)(F)c1noc(-c2ncn3c2Cc2cn(C4CCOC4)nc2-c2cc(Cl)ccc2-3)n1", "note": "(stereo not shown) [Compound 228]", "values": [
      {"measurement": "activation at 0.1 µM", "setting": "[1]; [3]", "value": "5 to 20", "unit": "%"},
      {"measurement": "Ki", "setting": "[2]", "value": "< 0.1", "unit": "µM"}
    ]},
    {"molecule": "Clc1ccc2c(c1)-c1nn(CC3CCCO3)cc1Cc1c(-c3cnn(Cc4ccccc4)c3)ncn1-2", "note": "(stereo not shown) [Compound 230]", "values": [
      {"measurement": "activation at 0.1 µM", "setting": "[1]; [3]", "value": "5 to 20", "unit": "%"},
      {"measurement": "Ki", "setting": "[2]", "value": "< 0.1", "unit": "µM"}
    ]},
    {"molecule": "COc1ccc2c(c1)-c1nn(CC3CCCO3)cc1Cc1c(-c3nc(C(C)C)no3)ncn1-2", "note": "(stereo not shown) [Compound 231]", "values": [
      {"measurement": "activation at 0.1 µM", "setting": "[1]; [3]", "value": "5 to 20", "unit": "%"},
      {"measurement": "Ki", "setting": "[2]", "value": "< 0.1", "unit": "µM"}
    ]},
    {"molecule": "COC(C)(C)c1noc(-c2ncn3c2Cc2cn(C)nc2-c2cc(Cl)ccc2-3)n1", "note": "[Compound 233]", "values": [
      {"measurement": "activation at 0.1 µM", "setting": "[1]; [4]", "value": "5 to 20", "unit": "%"},
      {"measurement": "Ki", "setting": "[2]; [5]", "value": "< 0.1", "unit": "µM"}
    ]}
  ]
}
